Series [1] is described as follows: Human microsomal stability assay. It is filed as in vitro ADME. As to conditions: human liver microsomes, 1 μM test compound, 37° C., pH 7.4. The method, then: Human Microsomal Stability Assay
Human liver microsomes (Cat. NO.: 452117, Corning, USA) were preincubated with test compound for 10 minutes at 37° C. in 100 mM potassium phosphate buffer, pH 7.4. The reactions were initiated by adding NADPH regenerating system. The final incubation mixtures contained 1 μM test compound, 0.5 mg/mL liver microsomal protein, 1 mM MgCl2, 1 mM NADP, 1 unit/mL isocitric dehydrogenase and 6 mM isocitric acid in 100 mM potassium phosphate buffer, pH 7.4. After incubation times of 0, 3, 6, 9, 15 and 30 minutes at 37° C., 300 μL of cold ACN (including internal standard) was added to 100 μL incubation mixture to terminate the reaction. Following precipitation and centrifugation, 100 μL supernatant will be taken out and added 300 μL water. The amount of compound remaining in the samples was determined by LC-MS/MS. Controls of no NADPH regenerating system at zero and 30 minutes were also prepared and analyzed. The results were categorized as: low (<7.0 mL/min/kg), medium (7.0-16.2 mL/min/kg) and high (16.2-23.2 mL/min/kg).

The target in a further series is human TLR9 (Homo sapiens (Human), UniProt Q9NR96). Nature of the series: HEK293-Blue-hTLR-9 cells assay. It is filed as cell-based. As to conditions: HEK293-Blue-hTLR9 cells, ODN2006 stimulation, 20 hrs, SEAP reporter; read-out: HEK/hTLR9 IC50.
For a further series, the target named is human TLR8 (Homo sapiens (Human), UniProt Q9NR97). Nature of the series: HEK293-Blue-hTLR-8 cells assay. The settings on record: HEK293-Blue-hTLR8 cells, R848 stimulation, 20 hrs, SEAP reporter; read-out: HEK/hTLR8 IC50. Format: cell-based.
human TLR8, sequence (Q9NR97 27-1041): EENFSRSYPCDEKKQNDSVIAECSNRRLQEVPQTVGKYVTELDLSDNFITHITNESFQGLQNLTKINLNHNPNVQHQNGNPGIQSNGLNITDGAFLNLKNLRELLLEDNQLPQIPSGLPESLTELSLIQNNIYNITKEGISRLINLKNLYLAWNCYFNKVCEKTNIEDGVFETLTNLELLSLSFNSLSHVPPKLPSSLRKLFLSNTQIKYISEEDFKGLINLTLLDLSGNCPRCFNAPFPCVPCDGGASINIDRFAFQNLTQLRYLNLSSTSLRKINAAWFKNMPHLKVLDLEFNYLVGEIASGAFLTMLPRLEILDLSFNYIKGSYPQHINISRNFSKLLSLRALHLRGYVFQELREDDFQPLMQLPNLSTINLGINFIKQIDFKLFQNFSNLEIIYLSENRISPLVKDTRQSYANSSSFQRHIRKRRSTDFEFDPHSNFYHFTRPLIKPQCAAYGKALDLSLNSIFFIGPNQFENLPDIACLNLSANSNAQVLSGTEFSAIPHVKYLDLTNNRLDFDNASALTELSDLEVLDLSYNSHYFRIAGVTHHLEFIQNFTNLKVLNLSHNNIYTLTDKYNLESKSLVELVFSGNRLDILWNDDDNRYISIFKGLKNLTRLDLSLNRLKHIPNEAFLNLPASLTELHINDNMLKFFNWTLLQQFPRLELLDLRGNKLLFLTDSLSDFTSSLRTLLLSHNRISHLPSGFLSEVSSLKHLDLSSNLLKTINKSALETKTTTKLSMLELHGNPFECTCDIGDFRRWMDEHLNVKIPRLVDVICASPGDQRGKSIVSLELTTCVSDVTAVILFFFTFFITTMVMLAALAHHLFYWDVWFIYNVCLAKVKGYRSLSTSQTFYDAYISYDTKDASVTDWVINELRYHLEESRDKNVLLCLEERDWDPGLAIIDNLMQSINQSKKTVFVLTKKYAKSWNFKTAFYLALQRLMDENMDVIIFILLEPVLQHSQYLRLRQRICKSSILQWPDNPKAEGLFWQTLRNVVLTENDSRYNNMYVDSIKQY

human TLR9, sequence (Q9NR96 26-1032): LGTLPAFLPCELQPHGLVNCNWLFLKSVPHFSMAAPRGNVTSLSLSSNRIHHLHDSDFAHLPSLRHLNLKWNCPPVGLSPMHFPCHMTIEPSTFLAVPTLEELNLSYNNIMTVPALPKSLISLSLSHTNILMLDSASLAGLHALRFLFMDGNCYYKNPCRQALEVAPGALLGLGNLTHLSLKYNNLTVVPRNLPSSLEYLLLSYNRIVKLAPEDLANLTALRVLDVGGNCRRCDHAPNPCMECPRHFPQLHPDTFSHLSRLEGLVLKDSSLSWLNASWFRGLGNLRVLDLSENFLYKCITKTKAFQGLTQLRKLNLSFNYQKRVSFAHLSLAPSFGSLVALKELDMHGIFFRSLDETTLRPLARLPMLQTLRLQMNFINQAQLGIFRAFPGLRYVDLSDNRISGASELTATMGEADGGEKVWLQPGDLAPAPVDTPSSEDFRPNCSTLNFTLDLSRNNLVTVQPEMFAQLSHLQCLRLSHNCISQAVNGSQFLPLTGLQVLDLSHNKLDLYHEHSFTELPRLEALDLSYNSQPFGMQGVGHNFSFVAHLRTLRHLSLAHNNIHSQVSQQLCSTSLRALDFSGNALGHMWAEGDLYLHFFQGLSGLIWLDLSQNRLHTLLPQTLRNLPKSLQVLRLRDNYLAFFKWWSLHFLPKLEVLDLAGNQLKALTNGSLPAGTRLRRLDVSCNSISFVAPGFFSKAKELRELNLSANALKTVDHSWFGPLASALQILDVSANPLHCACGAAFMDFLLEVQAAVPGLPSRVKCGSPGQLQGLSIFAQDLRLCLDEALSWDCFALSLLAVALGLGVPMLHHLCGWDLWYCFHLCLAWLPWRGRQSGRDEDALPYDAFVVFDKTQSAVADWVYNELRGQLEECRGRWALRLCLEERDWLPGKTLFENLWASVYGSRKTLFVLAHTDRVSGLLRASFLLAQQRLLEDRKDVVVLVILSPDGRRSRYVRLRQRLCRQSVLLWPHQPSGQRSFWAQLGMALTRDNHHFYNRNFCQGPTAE

Consider `[2H]c1ccc2c(N3C[C@@H]4C[C@H](N5CCC(N(C)C)CC5)CN4[C@H](C)C3)ccc(C#N)c2n1` [Example 20, 5-[(4R,7S,8aS)-7-[4-(dimethylamino)-1-piperidyl]-4-methyl-3,4,6,7,8,8a-hexahydro-1H-pyrrolo[1,2-a]pyrazin-2-yl]-2-deuterio-quinoline-8-carbonitrile], for which the “CL (h)” value in series [1] is on record as 6.2 mL/min/kg. The IC50 at human TLR9 was 150 nM; at human TLR8 it was 18.3 nM.

As for `C[C@@H]1CN(c2ccc(C#N)c3ncccc23)C[C@@H]2C[C@@H](Nc3ccc4c(n3)CCNC4)CN21` [Example 1, 5-[(4R,7R,8aS)-4-methyl-7-(5,6,7,8-tetrahydro-1,6-naphthyridin-2-ylamino)-3,4,6,7,8,8a-hexahydro-1H-pyrrolo[1,2-a]pyrazin-2-yl]quinoline-8-carbonitrile], the “CL (h)” value in series [1] stood at 9.1 mL/min/kg. Moreover, the IC50 at human TLR9 worked out at 43.4 nM; on human TLR8, 13.4 nM.

With `C[C@@H]1CN(c2ccc(C#N)c3ncccc23)C[C@@H]2C[C@@H](Nc3ccc4c(n3)CNCC4)CN21` [Example 3, 5-[(4R,7R,8aS)-4-methyl-7-(5,6,7,8-tetrahydro-1,7-naphthyridin-2-ylamino)-3,4,6,7,8,8a-hexahydro-1H-pyrrolo[1,2-a]pyrazin-2-yl]quinoline-8-carbonitrile], the “CL (h)” value in series [1] turned out to be 6.7 mL/min/kg. In addition, the IC50 at human TLR9 is 114 nM; on human TLR8 it was 18.4 nM.

`C[C@@H]1CN(c2ccc(C#N)c3ncccc23)C[C@@H]2C[C@@H](Nc3cc4c(cn3)CCNC4)CN21` [Example 2, 5-[(4R,7R,8aS)-4-methyl-7-(5,6,7,8-tetrahydro-2,6-naphthyridin-3-ylamino)-3,4,6,7,8,8a-hexahydro-1H-pyrrolo[1,2-a]pyrazin-2-yl]quinoline-8-carbonitrile]: the “CL (h)” value in series [1] amounted to 7.3 mL/min/kg. Moreover, the IC50 on human TLR9 came out at 89.5 nM; at human TLR8, 12.5 nM.

As for `[2H]c1ccc2c(N3C[C@@H]4C[C@H](N5CCNCC5)CN4[C@H](C)C3)ccc(C#N)c2n1` [Example 15, 5-[(4R,7S,8aS)-4-methyl-7-piperazin-1-yl-3,4,6,7,8,8a-hexahydro-1H-pyrrolo[1,2-a]pyrazin-2-yl]-2-deuterio-quinoline-8-carbonitrile], the “CL (h)” value in series [1] is 8.0 mL/min/kg. The IC50 on human TLR9 was found to be 120 nM; at human TLR8, 20.3 nM.

For the origin of these results see patent publication US12486273B2 (Hoffmann-La Roche Inc., priority 2019, dated 2025).
